In patent publication US20150218172A1, “Pyrrolo[2,3-D]Pyrimidine Tropomyosin-Related Kinase Inhibitors” (PFIZER LIMITED, priority 2012, published 2015) one finds IC50 data, which are given here for 15 molecules.

A word on the IC50: it is the concentration at which inhibition is half-maximal.

T1 sequence (P04629 441-796): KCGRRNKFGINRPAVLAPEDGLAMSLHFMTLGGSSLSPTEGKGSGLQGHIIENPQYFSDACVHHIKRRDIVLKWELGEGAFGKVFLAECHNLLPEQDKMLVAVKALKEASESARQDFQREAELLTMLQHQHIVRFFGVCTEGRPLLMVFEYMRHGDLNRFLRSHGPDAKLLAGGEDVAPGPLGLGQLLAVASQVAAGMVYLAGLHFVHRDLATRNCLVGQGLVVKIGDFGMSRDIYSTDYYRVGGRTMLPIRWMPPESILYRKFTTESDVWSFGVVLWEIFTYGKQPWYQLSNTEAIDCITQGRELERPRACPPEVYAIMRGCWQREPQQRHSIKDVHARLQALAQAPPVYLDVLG

One test concerns the target T1, TrkA (Homo sapiens, UniProt P04629).
T1 construct: aa 441-796; His; purchased Invitrogen PV3144
Description: Isolated TRK enzyme assay (HTRF KinEASE-TK kit), PV3144 TrkA enzyme assay. Format: biochemical.
Settings: not given
In a few lines: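 HTRF KinEASE tyrosine-phosphorylation readout (665/620 nm ratio) on a 1 uM biotinylated substrate after reaction with preactivated His-tagged TrkA cytoplasmic domain plus ATP and MgCl2/DTT buffer. Compound preincubated 20 min with enzyme; IC50 from log-concentration sigmoid curve, averaged where repeated.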
For orientation: TR-FRET usually uses a lanthanide donor and a delayed reading to cut background.
In turn, `Cc1cc(C)n(CC(=O)Nc2cc(C(=O)c3cn(CC4CC4)c4ncncc34)ccn2)n1` [Example 176, N-(4-{[7-(Cyclopropylmethyl)-7H-pyrrolo[2,3-d]pyrimidin-5-yl]carbonyl}pyridin-2-yl)-2-(3,5-dimethyl-1H-pyrazol-1-yl)acetamide] yielded an IC50 of 107 nM.

The test is the same for the next values; noted with them: PV3144 TrkA enzyme assay, recombinant His-tagged cytoplasmic domain aa 441-796, 4 nM enzyme, 40 uM ATP; arithmetic mean where more than one reading; read-out: Trka enzyme (IC50).
Consider `CC(C)c1cn(CC(=O)Nc2cc(C(=O)c3cn(C(C)C)c4ncncc34)ccn2)nn1` [Example 164, N-(4-{[7-(propan-2-yl)-7H-pyrrolo[2,3-d]pyrimidin-5-yl]carbonyl}pyridin-2-yl)-2-[4-(propan-2-yl)-1H-1,2,3-triazol-1-yl]acetamide], for which the IC50 turned out to be 31.8 nM.
The same measure, in the same setting: in the case of `COc1cc(C(=O)c2cn(C(C)C)c3ncncc23)cc(NC(=O)Cc2ccc(C#N)cc2)n1` [Example 165, 2-(4-cyanophenyl)-N-(6-methoxy-4-{[7-(propan-2-yl)-7H-pyrrolo[2,3-d]pyrimidin-5-yl]carbonyl}pyridin-2-yl)acetamide] it was 1040 nM.
For `CC1(n2cc(C(=O)c3cc(NC(=O)Cc4cccc(C(F)(F)F)c4)ccn3)c3cncnc32)COC1` [Example 166, N-(2-{[7-(3-methyloxetan-3-yl)-7H-pyrrolo[2,3-d]pyrimidin-5-yl]carbonyl}pyridin-4-yl)-2-[3-(trifluoromethyl)phenyl]acetamide], the IC50 is 52.9 nM.
Still for that read-out and setting: in the case of `CC1(n2cc(C(=O)c3cc(NC(=O)Cc4ccc(C(F)(F)F)cc4)ccn3)c3cncnc32)COC1` [Example 167, N-(2-{[7-(3-methyloxetan-3-yl)-7H-pyrrolo[2,3-d]pyrimidin-5-yl]carbonyl}pyridin-4-yl)-2-[4-(trifluoromethyl)phenyl]acetamide] it was 72.9 nM; in that of `CC1(n2cc(C(=O)c3cc(NC(=O)Cc4ccc(Cl)cn4)ccn3)c3cncnc32)COC1` [Example 168, 2-(5-chloropyridin-2-yl)-N-(2-{[7-(3-methyloxetan-3-yl)-7H-pyrrolo[2,3-d]pyrimidin-5-yl]carbonyl}pyridin-4-yl)acetamide], 155 nM; in that of `CC1(n2cc(C(=O)c3cc(NC(=O)Cc4ccc(C#N)cc4)ccn3)c3cncnc32)COC1` [Example 169, 2-(4-cyanophenyl)-N-(2-{[7-(3-methyloxetan-3-yl)-7H-pyrrolo[2,3-d]pyrimidin-5-yl]carbonyl}pyridin-4-yl)acetamide], 459 nM.
Turning to `CC1(n2cc(C(=O)c3cc(NC(=O)Cc4ccc(C(F)(F)F)c(F)c4)ccn3)c3cncnc32)COC1` [Example 170, 2-[3-fluoro-4-(trifluoromethyl)phenyl]-N-(2-{[7-(3-methyloxetan-3-yl)-7H-pyrrolo[2,3-d]pyrimidin-5-yl]carbonyl}pyridin-4-yl)acetamide], the IC50 worked out at 99.8 nM.
Same read-out and setting: with `CC1(n2cc(C(=O)c3cc(NC(=O)Cn4cc(C(F)(F)F)nn4)ccn3)c3cncnc32)COC1` [Example 171, N-(2-{[7-(3-methyloxetan-3-yl)-7H-pyrrolo[2,3-d]pyrimidin-5-yl]carbonyl}pyridin-4-yl)-2-[4-(trifluoromethyl)-1H-1,2,3-triazol-1-yl]acetamide] the figure was 255 nM; with `CC1(n2cc(C(=O)c3cc(NC(=O)Cc4ccc(F)cn4)ccn3)c3cncnc32)COC1` [Example 172, 2-(5-fluoropyridin-2-yl)-N-(2-{[7-(3-methyloxetan-3-yl)-7H-pyrrolo[2,3-d]pyrimidin-5-yl]carbonyl}pyridin-4-yl)acetamide], 1080 nM.
As to `CC(C)(C)n1cc(C(=O)c2ccnc(NC(=O)Cc3ccc(C#N)cc3)c2)c2cncnc21` [Example 173, N-{4-[(7-tert-butyl-7H-pyrrolo[2,3-d]pyrimidin-5-yl)carbonyl}pyridin-2-yl]-2-(4-cyanophenyl)acetamide], the IC50 was determined as 25.4 nM.
The same measure, in the same setting: with `Cc1cc(C)n(CC(=O)Nc2cc(C(=O)c3cn(C(C)(C)C)c4ncncc34)ccn2)n1` [Example 174, N-{4-[(7-tert-butyl-7H-pyrrolo[2,3-d]pyrimidin-5-yl)carbonyl}pyridin-2-yl]-2-(3,5-dimethyl-1H-pyrazol-1-yl)acetamide] the figure was 27.3 nM; with `N#Cc1ccc(CC(=O)Nc2cc(C(=O)c3cn(C4CC4)c4ncncc34)ccn2)cc1` [Example 175, 2-(4-cyanophenyl)-N-{4-[(7-cyclopropyl-7H-pyrrolo[2,3-d]pyrimidin-5-yl)carbonyl]pyridin-2-yl}acetamide], 407 nM.
Consider `Cc1cc(C)n(CC(=O)Nc2cc(C(=O)c3cn(CC4(O)CC4)c4ncncc34)ccn2)n1` [Example 177, 2-(3,5-Dimethyl-1H-pyrazol-1-yl)-N-[4-({7-[(1-hydroxycyclopropyl)methyl]-7H-pyrrolo[2,3-d]pyrimidin-5-yl}carbonyl)pyridin-2-yl]acetamide], for which the IC50 is 617 nM.
As to “N-(2-{[7-(propan-2-yl)-7H-pyrrolo[2,3-d]pyrimidin-5-yl]carbonyl}pyridin-4-yl)-2-[4-(trifluoromethyl)-1H-1,2,3-triazol-1-yl]acetamide [Example 80]”, the IC50 was 150 nM.
